According to US20190167640A1, “METHODS FOR TREATMENT OF MUSCULAR DYSTROPHIES” (Akashi Therapeutics, Inc., priority 2013, published 2019):
Entries after “also recorded” stand apart in the source; their conditions may differ.

Legend:
[1] = system: diaphragm strips of exercised mdx mice; test: Isometric contraction of diaphragm strips after in vivo treatment; conditions: for twitch tension of diaphragm strips: exercised mdx mice, Compound (I) 30 mg/kg s.c., nandrolone 5 mg/kg s.c., PDN 1 mg/kg i.p., 6 days/week, 4-6 weeks; for fatigue of diaphragm (drop of force after 5 repetitive tetani) / tetanic force of diaphragm: same treatments; for fatigue of diaphragm (drop of force after 5 repetitive tetani): 5 tetani at 100 Hz, 5 sec intervals; for tetanic force of diaphragm: vehicle-treated exercised mdx groups pooled together (FIG. 2B)
Protocol: Compound (I) and nandrolone were dissolved in 10% Ethanol/90% Corn Oil (Sigma-Aldrich) in order to have the final dosage needed in the volume of 0.1 ml/10 g body weight. PDN (from the commercial formulation URBASON) was diluted sterile water for injection (0.1 ml/10 g body weight). 40 mdx mice 5-6 weeks old (Charles River Italy for Jackson Lab) were first (at the beginning of the exercise/treatment period (Time 0)) randomized in groups homogeneous for body weight, fore limb strength and normalized force (fore limb strength/body weight), as follows: • 7 SEDENTARY MDX+VEHICLE (ethanol and corn oil) • 7 UNTREATED EXERCISED MDX+VEHICLE (ethanol and corn oil) • 9 EXERCISED MDX+Compound (I) 30 mg/kg • 8 EXERCISED MDX+Nandrolone 5 mg/kg • 3 EXERCISED MDX+VEHICLE (sterile water) • 6 EXERCISED MDX+PDN 1 mg/kg
The duration of the treatment was 4-6 weeks. At the end of 4 weeks, 34 mice remained on the protocol, as follows: • 7 SEDENTARY MDX+VEHICLE (ethanol and corn oil) • 7 UNTREATED EXERCISED MDX+VEHICLE (ethanol and corn oil) • 6 EXERCISED MDX+Compound (I) 30 mg/kg • 5 EXERCISED MDX+Nandrolone 5 mg/kg • 3 EXERCISED MDX+VEHICLE (sterile water) • 6 EXERCISED MDX+PDN 1 mg/kg
(§1) The chronic exercise consisted of 30 min running on horizontal treadmill at 12 m/min twice a week. Drug treatment started one day before the exercise protocol. At least 4 weeks of exercise were performed before starting the ex vivo experiments. In vivo parameters were monitored weekly throughout. Age of the mice at the time of ex-vivo experiments: 9-12 weeks. The effectiveness of the test compounds was then evaluated ex vivo for: • Mechanical properties of EDL muscle and diaphragm strips by isometric contraction • Mechanical threshold of EDL muscle, i.e. the voltage threshold for fiber contraction, as an index of excitation-contraction coupling mechanism and calcium homeostasis (two microelectode “point” voltage clamp method) • Cable parameters and macroscopic ionic conductance (two microelectrode current clamp recordings) • Spectrophotometric determination of plasma level of creatine kinase (CK), as an index of sarcolemmal damage, lactate dehydrogenase (LDH) as an index of metabolic sufferance, reactive oxygen species, as a marker of oxidative stress • Morphometric analysis of gastrocnemious (GC) muscle and diaphragm
Standard isometric contraction measurements on both EDL muscle and diaphragm strips were obtained by electric field stimulation via two axial platinum wires. For each preparation, a preliminary stabilization procedure (for proper temperature equilibration and relaxation after handling) was followed by the determination of the optimal resting length, i.e. the resting tension that allowed the maximal tension to be elicited by 40V depolarizing steps of 0.2ms duration. The preparations were then allowed to rest for about 30 min before starting the recording procedure.
Twitch tension: 5 single twitches elicited by pulses of 40 V and 0.2 ms (every 30 sec)→determination of maximal twitch tension and contraction kinetic (time to peak and half relaxation time);
Force frequency curve: 450 ms trains of 0.2 ms 40V pulses from 10 to 140 Hz→determination of maximal tetanic tension and frequency for half-maximal activation (Hz50) Fatigue: 5 tetani at 100 Hz (450 ms) and 5 sec intervals→determination of % drop of tension

[2] = system: EDL muscle of exercised mdx mice; test: Isometric and eccentric contraction of EDL muscle after in vivo treatment; conditions: same treatments; for fatigue of EDL (drop during the first 5 tetani): tetani at 5 sec intervals
[3] = system: EDL myofibers of exercised mdx mice; test: Mechanical threshold of EDL muscle (two microelectrode point voltage clamp); type: in vivo; conditions: for mechanical threshold: potential (voltage threshold) for fiber contraction of EDL myofibers: Compound (I) 30 mg/kg, nandrolone 5 mg/kg, PDN 1 mg/kg, 6 days/week, 4 weeks, all pulse durations; for rheobase voltage of EDL muscles / time constant to reach the rheobase, EDL myofibers: same treatments; for rheobase voltage of EDL muscles: calculated from fit of strength-duration curve; for time constant to reach the rheobase, EDL myofibers: from fit of strength-duration curve
Protocol: as §1
Mechanical threshold (MT) is an electrophysiological index of excitation contraction-coupling and of calcium homeostasis (De Luca et al., JPET 2003; Fraysse et al., Neurobiol. Dis., 2004). The application of depolarizing voltage steps of increasing durations shifts the contraction for fiber contraction toward more negative potential until a constant rheobase voltage is reached. The rheobase voltage represents the voltage at which the calcium that is released from the sarcoplasmis reticulum and the calcium reuptaken are at the steady-state. A shift of rheobase voltage toward more negative potential, as occurring in dystrophic mdx EDL myofibers, is indicative of more calcium being available for contraction, either resulting from greater release or slower reuptake or higher basal cytosolic levels.
In FIG. 30A, the data, expressed as the means±S.E.M. from 14 to 30 values from 2 to 5 preparations, show the voltages for the contraction of EDL myofibres (mechanical threshold) at increasing pulse duration in wild-type mice (WT, black circles) and in mdx mice treated with either vehicle (corn oil and water; Mdx+VTOT, white circles), 30 mg/kg Compound (I) (white triangles), 5 mg/kg nandrolone (upside-down black triangles) or 1 mg/kg PDN (white rhombus). The drugs were given 6 days per week. […] For some data points, the standard error bar is not visible because it is smaller than the symbol size. In FIGS. 30B and 30C, the rheobase voltage, in mV and the time constant, in ms, with relative standard errors, have been calculated from the fit of data points of the voltage-duration curves in A. In FIG. 30D, the total resting membrane ionic conductances (gm) in μS/cm^2 of EDL muscle fibres of the same experimental groups described in A are shown. The bars represent the means±SEM from the number of 3-5 prep/25-37 fibres. For each parameter, the significant differences between groups were evaluated using ANOVA for multiple comparisons (F values) and the Bonferroni t-test post hoc correction. Significant differences were found for rheobase voltage (F>4; p<0.003) and gm (F>7; p<0.0002).
In FIG. 31A, the data, expressed as the means±S.E.M. from 27 to 41 values from 3 preparations, show the voltages for the contraction of EDL myofibres (mechanical threshold) at increasing pulse duration in wild type mice (WT, black circles) and in mdx mice treated with either corn oil (Mdx+V1, white circles) or Compound (I) at 0.3 (white square), 3 (black square) or 30 mg/kg (white triangles). The drugs were given 6 days per week. […] For some data points, the standard error bar is not visible because it is smaller than the symbol size. […]

[4] = system: EDL myofibers of exercised mdx mice; test: Cable parameters and macroscopic ionic conductance of EDL myofibers (two microelectrode current clamp); type: in vivo; conditions: Compound (I) 30 mg/kg, nandrolone 5 mg/kg, PDN 1 mg/kg, 6 days/week, 4-6 weeks
Protocol: as §1
Passive cable properties are calculated for the spatial and temporal changes of membrane potential in response to a hyperpolarizing square current pulses. […]

exercised mdx mice = test: Spectrophotometric determination of plasma creatine kinase, lactate dehydrogenase and reactive oxygen species; type: in vivo; conditions: same treatments
Protocol: as §1
A marked elevation of plasma creatine kinase is a typical diagnostic marker of muscular dystrophy. In parallel an increase in lactate dehydrogenase is also observed as a sign of metabolic sufferance while an increase on reactive oxygen species can occur as a result of ongoing oxidative stress. Generally, these biochemical indices are further aggravated by the exercise protocol. However, in the present study all the three parameters CK, LDH and ROS were particularly altered in the sedentary mdx mice and therefore no remarkable effect of exercise was observed.

[5] = system: diaphragm and GC muscle of exercised mdx mice; test: Histology and morphometric analysis of gastrocnemius (GC) muscle and diaphragm; type: in vivo; conditions: preliminary morphometric analysis (FIG. 23)
Protocol: as §1
Representative pictures of histology profile of diaphragm and GC muscles in the various experimental conditions are shown in FIG. 22.

Compound | twitch tension of diaphragm strips [1] | fatigue of diaphragm (drop of force after 5 repetitive tetani) [1] | tetanic force of diaphragm [1] | frequency for half-maximal activation (Hz50) of EDL [2] | twitch/tetanus ratio of EDL [2] | mechanical threshold: potential (voltage threshold) for fiber contraction of EDL myofibers [3] | mechanical threshold: voltage threshold values of EDL myofibres ([3]; Compound (I) at 0.3, 3 or 30 mg/kg, 6 days per week, second study (up to 12 weeks), vs vehicle-treated mdx) | rheobase voltage of EDL muscles [3] | time constant to reach the rheobase, EDL myofibers [3] | membrane resistance (Rm) and total membrane ionic conductance (gm) of EDL myofibers [4] | lactate dehydrogenase (LDH) (exercised mdx mice) | fatigue of EDL (drop during the first 5 tetani) [2] | creatine kinase (CK) (exercised mdx mice) | fiber area of both normal and centronucleated fibers [5] | twitch tension of EDL [2]
CN1C(=O)N(c2ccc(C#N)c(C(F)(F)F)c2)C(=O)[C@@]1(CO)c1ccccc1 [Compound (I)] | greater than those of untreated ones and no more significantly different with respect to those of weight | protection was observed | significantly greater than those of untreated, although still lower than weight ones | no significant effects | no effect | significant shift of the potential for fiber contraction toward weight values; also recorded: significantly more positive | significantly more positive | almost overlapping that of weight | remarkably shorter than those of untreated exercised and not significantly different with respect to that of weight | effects comparable to that of PDN | slight, but not significant reduction | – | – | – | –
C[C@H]1C[C@@H]2[C@H]([C@@H](O)C[C@@]3(C)[C@H]2CC[C@]3(O)C(=O)CO)[C@@]2(C)C=CC(=O)C=C12 [PDN, α-methyl-prednisolone] | the two anabolic compounds exerted a greater protection than PDN | protection was observed | significantly greater than those of untreated, although still lower than weight ones | no significant effects | slight but not significant decrease | less effective than Compound (I); also recorded: significantly more positive | – | values intermediate between untreated mdx and weight | effect of Compound (I) on this parameter was greater than that of nandrolone and PDN | effect consistent with that observed in previous studies | lack of effect | partial recovery | lack of effect | increase | –
C[C@]12CC[C@H]3[C@@H](CCC4=CC(=O)CC[C@@H]43)[C@@H]1CC[C@@H]2O [nandrolone] | greater than those of untreated ones and no more significantly different with respect to those of weight | – | significantly greater than those of untreated, although still lower than weight ones | no significant effects | no effect | less effective than Compound (I); also recorded: significantly more positive | – | values intermediate between untreated mdx and weight | effect of Compound (I) on this parameter was greater than that of nandrolone and PDN | – | – | partial recovery | – | increase | tendency toward an increase
